In patent US9371290B2, “Pyridazinone compounds” (BIOTIE THERAPIES CORPORATION, priority 2011, dated 2016):

Columns and labels:
[1] = biological target: T1, Recombinant human VAP-1 SSAO (Homo sapiens, UniProt Q16853); assay: In vitro inhibition of VAP-1 SSAO activity (coupled colorimetric method, benzylamine substrate); format: biochemical; details: CHO cell lysate, 1 mM benzylamine, read-out: VAP-1 SSAO Inhibitory activity IC50
T1 construct: made in house; host or cells: Chinese Hamster Ovary (CHO) cells; clarified NP40 cell lysate used directly
T1 sequence (Q16853 1-763): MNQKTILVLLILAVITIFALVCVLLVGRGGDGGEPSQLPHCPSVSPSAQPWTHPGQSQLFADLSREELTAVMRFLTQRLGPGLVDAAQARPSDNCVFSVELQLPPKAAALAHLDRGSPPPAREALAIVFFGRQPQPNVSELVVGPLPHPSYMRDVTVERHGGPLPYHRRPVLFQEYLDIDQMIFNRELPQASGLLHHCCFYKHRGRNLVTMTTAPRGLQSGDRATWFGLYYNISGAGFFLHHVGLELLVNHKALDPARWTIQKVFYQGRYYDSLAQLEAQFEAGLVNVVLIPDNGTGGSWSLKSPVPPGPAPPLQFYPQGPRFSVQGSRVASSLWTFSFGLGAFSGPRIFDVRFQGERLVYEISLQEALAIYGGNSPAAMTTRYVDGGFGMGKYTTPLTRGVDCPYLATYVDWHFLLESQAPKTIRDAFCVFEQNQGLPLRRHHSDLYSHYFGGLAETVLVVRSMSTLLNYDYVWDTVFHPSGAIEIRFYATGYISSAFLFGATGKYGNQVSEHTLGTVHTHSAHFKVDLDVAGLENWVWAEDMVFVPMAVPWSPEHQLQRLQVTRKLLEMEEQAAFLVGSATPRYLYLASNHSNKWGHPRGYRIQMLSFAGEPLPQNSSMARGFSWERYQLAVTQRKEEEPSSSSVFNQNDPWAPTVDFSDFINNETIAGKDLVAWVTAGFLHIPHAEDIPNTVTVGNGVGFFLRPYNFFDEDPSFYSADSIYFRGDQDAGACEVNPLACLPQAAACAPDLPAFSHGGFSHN
Description: VAP-1 SSAO activity was measured using the coupled colorimetric method essentially as described for monoamine oxidase and related enzymes (Holt, A., et al., Anal. Biochem. 244:384-392 (1997)). Recombinant human VAP-1 SSAO expressed in Chinese Hamster Ovary (CHO) cells was used as a source of VAP-1 SSAO for activity measurements. Native CHO cells have negligible SSAO activity. These cells and their culture have previously been described (Smith, D. J., et al., J. Exp. Med. 188:17-27 (1998)). A cell lysate was prepared by suspending approximately 3.6×10^8 cells in 25 ml lysis buffer (150 mM NaCl, 10 mM Tris-Base pH 7.2, 1.5 mM MgCl2, 1% NP40) and incubating at 4° C. overnight on a rotating table. The lysate was clarified by centrifugation at 18 000 g for 5 min at room temperature and the supernatant used directly in the assay. The VAP-1 SSAO assay was performed in 96 well microtitre plates as follows. To each well was added a predetermined amount of inhibitor if required. The amount of inhibitor varied in each assay but was generally at a final concentration of between 1 nM and 50 μM. Controls lacked inhibitor. The inhibitor was in a total volume of 20 μl in water. The following reagents were then added. 0.2 M potassium phosphate buffer pH 7.6 to a total reaction volume of 200 μl, 50 μl of freshly made chromogenic solution containing 1 mM vanillic acid, 500 μM 4-aminoantipyrine and 8 U/ml horseradish peroxidase and an amount of CHO cell lysate containing VAP-1 SSAO that caused a change of 0.6 A490 per h. This was within the linear response range of the assay. The plates were incubated for 30 min at 37° C. and the background absorbance measured at 490 nm using a Wallac Victor II multilabel counter. To initiate the enzyme reaction 20 μl 10 mM benzylamine (final concentration=1 mM) was added and the plate incubated for 1 h at 37° C. The increase in absorbance, reflecting VAP-1 SSAO activity, was measured at 490 nm. Inhibition was presented as percent inhibition compared to control after correcting for background absorbance and IC50 values calculated using GraphPad Prism.

| SMILES | melting point [°C] | IC50 [1] [µM] |
| --- | --- | --- |
| O=c1cc(O)c(-c2nc[nH]n2)nn1-c1ccccc1 [Compound 3] | 218 to 220 |  |
| COC(=O)c1nn(-c2ccccc2)c(=O)cc1-n1cc(-c2ccccc2)nn1 [Compound 6] | 240 to 248 |  |
| CN1CCN(c2cc(=O)n(-c3ccccc3)nc2C(N)=O)CC1.Cl | 248 to 250 |  |
| C#CCN(C)c1cc(=O)n(-c2ccc(Cl)cc2)nc1-c1nc[nH]n1 [Compound 82] | 210 to 212 |  |
| O=c1cc(Nc2ccncc2)c(-c2nc[nH]n2)nn1-c1ccccc1 [Compound 53] | 342 to 344 |  |
| CCOC(=O)c1cn(-c2cc(=O)n(-c3ccccc3)nc2C(=O)OC)nn1 [Compound 7] | 165 to 170 |  |
| O=c1cc(Nc2ccccc2)c(-c2nc[nH]n2)nn1-c1ccc(Cl)cc1 [Compound 64] | 244 to 246 |  |
| O=c1cc(N2CCCC2)c(-c2nc[nH]n2)nn1-c1ccccc1 [Compound 44] | 301 to 303 |  |
| O=c1cc(Nc2ccccc2)c(-c2nc[nH]n2)nn1-c1cccc(F)c1 [Compound 69] | 233 to 235 |  |
| O=c1cc(Nc2ccc(N3CCNCC3)cc2)c(-c2nc[nH]n2)nn1-c1ccc(Cl)cc1 [Compound 80, 2-(4-chlorophenyl)-5-{[4-(4-piperazine-1-yl)phenyl]amino}-6-(1H-1,2,4-triazol-3-yl)-3(2H)-pyridazinone] | 212 to 224 |  |
| CN(C)/C=N/C(=O)c1nn(-c2ccccc2)c(=O)cc1Oc1ccccc1 [Compound 23, N,N-dimethyl-N′-[(6-oxo-4-phenoxy-1-phenyl-1,6-dihydropyridazin-3-yl)carbonyl]formamidine] | 175 to 176 |  |
| O=c1cc(Oc2ccccc2)c(-c2cccnc2)nn1-c1ccccc1 [Compound 9] | 155 to 157 |  |
| N#CCNc1cc(=O)n(-c2ccc(Cl)cc2)nc1-c1nc[nH]n1 [Compound 79] | 303 to 306 |  |
| Nc1ccc(Nc2cc(=O)n(-c3ccc(Cl)cc3)nc2-c2nc[nH]n2)cc1 [Compound 66] | 278 to 281 |  |
| Cc1ccsc1-c1nn(-c2ccccc2)c(=O)cc1Oc1ccccc1 [Compound 20] | 212 to 214 |  |
| CN(C)CCNc1cc(=O)n(-c2ccccc2)nc1-c1nc[nH]n1 [Compound 13] | 211 to 214 | 15 |
| NNC(=O)c1nn(-c2ccccc2)c(=O)cc1Oc1ccccc1 [Compound 76] | 80 to 82 |  |
| Cc1noc(C)c1-c1nn(-c2ccccc2)c(=O)cc1Oc1ccccc1 [Compound 19] | 122 to 124 |  |
| O=c1cc(Oc2ccccc2)c(-c2ccco2)nn1-c1ccccc1 [Compound 18] | 232 to 234 |  |
| NCCCNc1cc(=O)n(-c2ccc(Cl)cc2)nc1-c1nc[nH]n1 [Compound 78] | 285 to 290 | 0.8 |
| [N-]=[N+]=Nc1cc(=O)n(-c2ccccc2)nc1C1=NCCN1 [Compound 47, 5-Azido-6-(4,5-dihydro-1H-imidazol-2-yl)-2-phenylpyridazin-3(2H)-one] | 238 to 240 |  |
| CC(C)Nc1cc(=O)n(-c2ccccc2)cc1-c1nc[nH]n1 [Compound 54, 4-isopropylamino-1-phenyl-5-(1H-1,2,4-triazol-3-yl)-pyridin-2(1H)-one] | 307 to 310 |  |

| SMILES | melting point [°C] | IC50 [1] [µM] |
| --- | --- | --- |
| O=c1cc(NCCN2CCOCC2)c(-c2nc[nH]n2)nn1-c1ccccc1 [Compound 39] | 251 to 258 | 2 |
| O=c1cc(Oc2ccccc2)c(-c2nc[nH]n2)nn1-c1cccc(C(F)(F)F)c1 [Compound 33] | 257 to 258 |  |
| COc1ccc(Nc2cc(=O)n(-c3ccc(Cl)cc3)nc2-c2nc[nH]n2)cc1OC [Compound 60] | 227 to 230 |  |
| CCCc1cn(-c2cc(=O)n(-c3ccccc3)nc2C(=O)OC)nn1 [Compound 24] | 146 to 148 |  |
| CN1CCN(c2ccc(Nc3cc(=O)n(-c4ccc(Cl)cc4)nc3-c3nc[nH]n3)cc2)CC1 [Compound 63] | 227 to 229 | 0.07 |
| Cn1nccc1-c1nn(-c2ccccc2)c(=O)cc1Oc1ccccc1 [Compound 1] | 118 to 119 |  |
| N=CNNC(=O)c1nn(-c2ccccc2)c(=O)cc1Sc1ccccc1 [Compound 8, N^2-iminomethyl-6-oxo-4-phenylsulfanyl-1-phenyl-1,6-dihydropyridazin-3-carbohydrazide] | 236 to 238 |  |
| COc1cc(=O)n(-c2ccccc2)nc1-c1nc[nH]n1 [Compound 31] | 235 to 240 |  |
| CCCc1cn(-c2cc(=O)n(-c3ccccc3)nc2C#N)nn1 [Compound 32, 6-oxo-1-phenyl-4-(4-propyl-1H-1,2,3-triazol-1-yl)-1,6-dihydropyridazine-3-carbonitrile] | 192 to 195 |  |
| CN1CCN(c2ccc(Nc3cc(=O)n(-c4ccc(Cl)cc4)cc3-c3nc[nH]n3)cc2)CC1 [Compound 81] | 218 to 221 | 0.031 |
| O=c1cc(Oc2ccccc2)c(-c2cn[nH]c2)nn1-c1ccccc1 [Compound 30] | 245 to 247 |  |
| O=c1cc(Oc2ccc(Cl)cc2)c(-c2nc[nH]n2)nn1-c1ccccc1 [Compound 15] | 235 to 240 |  |
| CN1CCC(Nc2cc(=O)n(-c3ccc(Cl)cc3)nc2-c2nc[nH]n2)CC1 [Compound 68] | 227 to 230 | 0.18 |
| O=c1cc(Oc2ccccc2)c(-c2cccc(C(F)(F)F)c2)nn1-c1ccccc1 [Compound 21, 5-phenoxy-2-phenyl-6-[(3-trifluoromethyl)phenyl]pyridazin-3(2H)-one] | 146 to 148 |  |
| O=c1cc(Oc2ccccc2)c(-c2nc[nH]n2)nn1-c1ccccc1F [Compound 45] | 265 to 267 |  |
| CN(C)c1ccc(Nc2cc(=O)n(-c3cccc(Cl)c3)nc2-c2nc[nH]n2)cc1 [Compound 72] | 243 to 245 |  |
| Cc1nc(-c2nn(-c3ccccc3)c(=O)cc2Oc2ccccc2)n[nH]1 [Compound 51, 5-phenoxy-2-phenyl-6-(5-methyl-1H-1,2,4-triazol-3-yl)-3(2H)-pyridazinone] | 245 to 247 |  |
| COc1ccc(-n2nc(-c3nc[nH]n3)c(Oc3ccccc3)cc2=O)cc1 [Compound 26] | 284 to 286 |  |
| Cn1cnc(-c2nn(-c3ccccc3)c(=O)cc2Oc2ccccc2)n1 [Compound 41] | 235 to 237 |  |
| O=c1cc(Nc2ccccc2)c(-c2nc[nH]n2)nn1-c1ccccc1 [Compound 40] | 287 to 290 |  |
| CN(C)CCNC(=O)c1nn(-c2ccccc2)c(=O)cc1Oc1ccccc1.Cl | 138 to 141 |  |
| CN1CCC(Nc2cc(=O)n(-c3ccc(Cl)cc3)nc2-c2nc[nH]n2)CC1 [Compound 67] | 270 to 272 |  |
